The text below walks through data of patent US10647690B2, “2,3-epoxy succinyl derivative, preparation method and use thereof” (Institute of Pharmacology and Toxicology Academy of …, priority 2016, dated 2020).

Read-outs that look alike come from different tables or passages of the source.

In the assay the target is T1, Cathepsin K (Homo sapiens, UniProt P43235).
T1 construct: purchased Biovision K150-100
T1 sequence (P43235 115-329): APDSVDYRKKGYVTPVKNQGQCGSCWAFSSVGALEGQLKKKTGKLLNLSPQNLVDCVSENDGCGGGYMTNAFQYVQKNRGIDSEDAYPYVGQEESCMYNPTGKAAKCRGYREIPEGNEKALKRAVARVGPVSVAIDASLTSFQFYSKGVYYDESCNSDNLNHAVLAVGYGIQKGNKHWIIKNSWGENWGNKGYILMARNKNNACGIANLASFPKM
As to the kind of experiment: Preliminary screening of Cathepsin K (Cathepsin K Inhibitor Screening Kit K150-100, Biovision). The note with it: relative inhibition rate vs 10 μM FF-FMK control. The assay is classed as biochemical. As to the method: 1. Method for preliminary screening of Cathepsin K:
Preliminary screening of Cathepsin K was performed by using Cathepsin K Inhibitor Screening Kit (Product No. K150-100) from Biovision Company.
1.1.1 Preparation of Cathepsin K enzyme solution: Cathepsin K enzyme (40 μl) and Cathepsin K reagent (80 μl) were added to Cathepsin K buffer (3.88 ml), and were mixed well, to prepare Cathepsin K enzyme solution with a volume of 4 ml, which was placed on ice for further use.
1.1.2 Preparation of a compound solution: different compounds were separately weighed and dissolved in DMSO (methyl sulfoxide), to prepare solutions at a concentration of 30 mM as stock solutions, and for some insoluble compounds, they were prepared into solutions at a concentration of 10 mM as stock solutions; the 30 mM and 10 mM compound stock solutions were diluted to 1 mM and 100 μM DMSO solutions, respectively; 1 mM and 100 μM compound DMSO solutions (2 μl) were separately added to CTSK buffer (18 μl), to prepare compound solutions at a final concentration of 100 μM and 10 μM, respectively, wherein the concentration of DMSO was 10%.
1.1.3 Preparation of Cathepsin K substrate solution: Cathepsin K substrate (160 μl) was added to Cathepsin K buffer (3.44 ml), and mixed homogeneously, to prepare Cathepsin K substrate solution with a volume of 3.6 ml, which was placed on ice for further use.
1.2 Method for screening Cathepsin K inhibitor: Cathepsin K enzyme solution (prepared in Item 1.1.1) was added to a 384-well plate (ProxiPlate-384 Plus, Perkinelmer) at 10 μl/well, and centrifuged at 1000 rpm for 1 min; the compound solution (prepared in Item 1.1.2) was then added at 2 µl/well, and centrifuged at 1000 rpm for 1 min, and every concentration was repeated in two wells; the plate was placed in a 25° C. incubator for 15 min; Cathepsin K substrate solution was then added at 8 μl/well, and centrifuged at 1000 rpm for 1 min; and finally, the fluorescence signal was read in Enspire, wherein the exciting light was at a wavelength of 400 nm, the emitting light was at a wavelength of 505 nm, and continuous reading was performed at 37° C. for 120 min.
1.3 Data analysis: the slope (S) for all the samples was calculated by ΔRFU (RFU2−RFU1) and time ΔT (T2−T1), including negative control (Enzyme Control, EC) and positive control (Inhibitor Control, IC: 10 μM FF-FMK), and the calculation formula was as followed: Relative inhibition rate %=(SEC−SS)/(SEC−SIC)*100.

Where [1] appears, read: 1 μM compound, replicate 1, read-out: Inhibition % (1 μM) replicate 1.
[2] abbreviates: 1 μM compound, replicate 2, read-out: Inhibition % (1 μM) replicate 2.
The mark [3] stands for this setting: 10 μM compound, replicate 1, read-out: Inhibition % (10 μM) replicate 1.
The mark [4] stands for this setting: 10 μM compound, replicate 2, read-out: Inhibition % (10 μM) replicate 2.

What is called inhibition is the change of the read-out against control, counted positive when it falls.

As for `CCOC(=O)[C@H]1O[C@@H]1C(=O)N[C@@H](CSCc1ccccc1)C(=O)NCCCCc1ccccc1` [Compound 20, (2s, 3s)-2-ethoxycarbonyl-3-[2-[(s)-3-benzylthio-1-carbonyl-1-(4-phenylbutylamino)propane]formylamino]epoxysuccinic acid], the inhibition at 1 µM came to 30.2% under setting [1] and 37% under setting [2]. Further, the inhibition at 10 µM under setting [3] was determined as 36.3% and the inhibition at 10 µM under setting [4] stood at 50.4%.

For `CCOC(=O)[C@H]1O[C@@H]1C(=O)N[C@@H](CSCc1ccccc1)C(=O)NCCc1ccc(C)cc1` [Compound 21, (2s, 3s)-2-ethoxycarbonyl-3-[2-[(s)-3-benzylthio-1-carbonyl-1-(p-methylphenylethylamino)propane]formylamino]epoxysuccinic acid], the inhibition at 1 µM under setting [1] came out at 33.1% and the inhibition at 1 µM under setting [2] came out at 29.9%. The inhibition at 10 µM reads like this: under setting [3], 67.2%; under setting [4], 53%.

For `CCOC(=O)[C@H]1O[C@@H]1C(=O)N[C@@H](CSCc1ccccc1)C(=O)N1CCCC1` [Compound 22, (2s, 3s)-2-ethoxycarbonyl-3-[2-[(s)-3-benzylthio-1-carbonyl-1-(tetrahydropyrrolyl)propane]formylamino]epoxysuccinic acid], the inhibition at 1 µM is 16% under setting [1] and -4.45% under setting [2]. In addition, the inhibition at 10 µM is, setting by setting: under setting [3], 29.7%; under setting [4], 19.5%.

For the compound `CCOC(=O)[C@H]1O[C@@H]1C(=O)N[C@@H](CSCc1ccccc1)C(=O)N1CCC(c2ccccc2)CC1` [Compound 23, (2s, 3s)-2-ethoxycarbonyl-3-[2-[(s)-3-benzylthio-1-carbonyl-1-(4-phenylpiperidinyl)propane]formylamino]epoxysuccinic acid], the inhibition at 1 µM under setting [1] was 16.1% and the inhibition at 1 µM under setting [2] was found to be 37.7%. The inhibition at 10 µM under setting [3] was found to be 70.1% and the inhibition at 10 µM under setting [4] was determined as 63%.

`CCOC(=O)[C@H]1O[C@@H]1C(=O)N[C@H](CSCc1ccccc1)C(=O)NCCc1ccc(OC)cc1` [Compound 26, (2s, 3s)-2-ethoxycarbonyl-3-[2-[(s)-3-benzylthio-1-carbonyl-1-(4-methoxyphenylethylamino)propane]formylamino]epoxysuccinic acid]: where the note is “1 μM compound, replicate 1”, the “Inhibition % (1 μM) replicate 1” value amounted to 35.73%. Moreover, the “Inhibition % (1 μM) replicate 2” value (1 μM compound, replicate 2) worked out at 44.11%. The “Inhibition % (10 μM) replicate 1” value (10 μM compound, replicate 1) was determined as 67.87%. The “Inhibition % (10 μM) replicate 2” value (10 μM compound, replicate 2) was 63.25%.

Take `CCOC(=O)[C@H]1O[C@@H]1C(=O)N[C@@H](CCSC)C(=O)NCC(C)(C)C` [Compound 30, (2s, 3s)-2-ethoxycarbonyl-3-[2-[(s)-4-methylthio-1-carbonyl-1-(neopentylamino)butane]formylamino]epoxysuccinic acid]: the inhibition at 1 µM was found to be 31.6% under setting [1] and 26.9% under setting [2]. For the same compound, the inhibition at 10 µM under setting [3] was 29.6% and the inhibition at 10 µM under setting [4] stood at 31.7%.

Turning to `CCOC(=O)[C@H]1O[C@@H]1C(=O)N[C@@H](CCSC)C(=O)NC(C)(C)CC` [Compound 31, (2s, 3s)-2-ethoxycarbonyl-3-[2-[(s)-4-methylthio-1-carbonyl-1-(tert-pentylamino)butane]formylamino]epoxysuccinic acid], the inhibition at 1 µM was 30.5% under setting [1] and 36.6% under setting [2]. In addition, the inhibition at 10 µM was 44.1% under setting [3] and 45.4% under setting [4].

As to `CCOC(=O)[C@H]1O[C@@H]1C(=O)N[C@@H](CCSC)C(=O)NC(C)CC` (stereo partly shown) [Compound 32], the inhibition at 1 µM under setting [1] was determined as 37.5% and the inhibition at 1 µM under setting [2] turned out to be 38.7%. In addition, the inhibition at 10 µM was 36.2% under setting [3] and 40.6% under setting [4].

Turning to `CCOC(=O)[C@H]1O[C@@H]1C(=O)N[C@@H](CCSC)C(=O)NCCc1ccc(C)cc1` [Compound 33, (2s, 3s)-2-ethoxycarbonyl-3-[2-[(s)-4-methylthio-1-carbonyl-1-(p-methylphenylethylamino)butane]formylamino]epoxysuccinic acid], the inhibition at 1 µM worked out at 36.6% under setting [1] and 33.1% under setting [2]. For the same compound, the inhibition at 10 µM by setting is: under setting [3], 34.9%; under setting [4], 36%.

Consider `CCOC(=O)[C@H]1O[C@@H]1C(=O)N[C@@H](CCSC)C(=O)N1CCCCC1CC` (stereo partly shown) [Compound 35, (2s, 3s)-2-ethoxycarbonyl-3-[2-[(s)-4-methylthio-1-carbonyl-1-(2-ethylpiperidinyl)butane]formylamino]epoxysuccinic acid], for which the inhibition at 1 µM runs as follows: under setting [1], 37.8%; under setting [2], 22.8%. The inhibition at 10 µM was 72% under setting [3] and 61.1% under setting [4].

`CCOC(=O)[C@H]1O[C@@H]1C(=O)N[C@@H](CCSC)C(=O)N1CCSCC1` [Compound 36, (2s, 3s)-2-ethoxycarbonyl-3-[2-[(s)-4-methylthio-1-carbonyl-1-(thiomorpholinyl)butane]formylamino]epoxysuccinic acid]: the inhibition at 1 µM by setting is: under setting [1], 17.5%; under setting [2], 21.6%. For the same compound, the inhibition at 10 µM under setting [3] was determined as 61.4% and the inhibition at 10 µM under setting [4] worked out at 63.5%.

`CCOC(=O)[C@H]1O[C@@H]1C(=O)N[C@@H](CCSC)C(=O)N1CCSC1` [Compound 38, (2s, 3s)-2-ethoxycarbonyl-3-[2-[(s)-4-methylthio-1-carbonyl-1-(tetrahydrothiazolyl)butane]formylamino]epoxysuccinic acid]: the inhibition at 1 µM turned out to be 36.8% under setting [1] and 37.9% under setting [2]. The inhibition at 10 µM reads like this: under setting [3], 44.3%; under setting [4], 41.4%.

As for `CCOC(=O)[C@H]1O[C@@H]1C(=O)N[C@@H](CCSC)C(=O)N1CC(C)CC(C)C1` (stereo partly shown) [Compound 41, (2s, 3s)-2-ethoxycarbonyl-3-[2-[(s)-4-methylthio-1-carbonyl-1-(3,5-dimethylpiperidinyl)butane]formylamino]epoxysuccinic acid], the inhibition at 1 µM by setting is: under setting [1], 32.1%; under setting [2], 30.8%. Further, the inhibition at 10 µM is, setting by setting: under setting [3], 64.2%; under setting [4], 61%.
